From patent publication US8551510B2, “Bed bug control and repellency” (Bedoukian Research, Inc., priority 2009, dated 2013)
Where two headings read alike, the source gives them in different places.

Test system: bed bugs
Assay: Choice test with unconcealed bed bugs on filter paper discs, test compound in acetone vs. acetone only (percent repellency)
Assay type: in vivo
Conditions: for percent repellency at 2 hour: 2 hour post-treatment (Table 2)
Experimental: This test was undertaken employing unconcealed bugs. Two semicircular discs of filter paper, 9 cm in radius treated with 1 ml of solution to wet the entire surface, one treated with an acetone solution of the test compound and one only acetone treated were placed on the lid of a Petri dish. Five replicates of ten (10) bed bugs were release into the center of the lids of the Petri dish with a choice of the test compound treated or only acetone treated substrate. The distribution of bed bugs was recorded at ½, […], 2, 6 and 24 hours post-treatment. Paired t-tests were conducted for each treatment to ascertain whether or not there was a statistically significant difference in the number of bed bugs on the treated vs. untreated discs.

[1] = chemical at 0.5% in acetone on filter paper, 0.5 hr post-treatment, read-out: percent repellency at 0.5 hr
[2] = chemical at 0.5% in acetone on filter paper, 1 hr post-treatment, read-out: percent repellency at 1 hr
[3] = chemical at 0.5% in acetone on filter paper, 6 hr post-treatment, read-out: percent repellency at 6 hr
[4] = chemical at 0.5% in acetone on filter paper, 24 hr post-treatment, read-out: percent repellency at 24 hr
[5] = chemical at 0.5%, average of 0.5, 1, 6 and 24 hr, read-out: percent repellency, Average
[6] = 0.5 h, read-out: percent repellency at 0.5 hr
[7] = 1 h, read-out: percent repellency at 1 hr
[8] = 6 h, read-out: percent repellency at 6 hr
[9] = 24 h, read-out: percent repellency at 24 hr
[10] = read-out: percent repellency, Average
[11] = chemical at 0.2% in acetone on filter paper, 0.5 hr post-treatment, read-out: percent repellency at 0.5 hr
[12] = chemical at 0.2% in acetone on filter paper, 1 hr post-treatment, read-out: percent repellency at 1 hr
[13] = chemical at 0.2% in acetone on filter paper, 6 hr post-treatment, read-out: percent repellency at 6 hr
[14] = chemical at 0.2% in acetone on filter paper, 24 hr post-treatment, read-out: percent repellency at 24 hr
[15] = chemical at 0.2%, average of 0.5, 1, 6 and 24 hr, read-out: percent repellency, Average

Row | SMILES | pest or weed control at 0.5 % [1] [%] | pest or weed control at 0.5 % [2] [%] | pest or weed control at 0.5 % [3] [%] | pest or weed control at 0.5 % [4] [%] | pest or weed control at 0.5 % [5] [%] | other results
1 | CCCCCCCCC(=O)C(C)=O [2,3-Undecanedione, reference compound] | 90 | 60 | 60 | 90 | 75 | 
2 | O=C1CCCC1C1CCCC1 (stereo not drawn) [2-Cyclopentylcyclopentanone, 2-cyclopentylcyclopentanone] | 90 | 90 | 76 | 70 | 81 | 
3 | CC(C)=CCCC(C)=CCC1CCCC1=O (stereo not drawn) [2-Geranylcyclopentanone (Apritone), 2-(3,7-dimethylocta-2,6-dienyl)cyclopentan-1-one] | 100 | 100 | 100 | 100 | 100 | 
4 | CCCCCC=CCC1CCCC1=O (stereo not drawn) [2-Octenylcyclopentanone, 2-(2-octen-1-yl)cyclopentanone] | 100 | 100 | 100 | 100 | 100 | 
5 | CCCCCCC=CC(C)=O [3-Decen-2-one] | 82 | 84 | 78 | 76 | 80 | 
6 | CC(=O)C=CC1C(C)=CCCC1(C)C (stereo not drawn) [Alpha Ionone, 4-(2,6,6-trimethyl-2-cyclohexenyl)-3-buten-2-one] |  |  |  |  |  | pest or weed control at 0.5 % [6]: 100%; pest or weed control at 0.5 % [7]: 100%; pest or weed control at 0.5 % [8]: 100%; pest or weed control at 0.5 % [9]: 84%; pest or weed control at 0.5 % [10]: 96%
7 | CC(=O)C(C)=CC1C(C)=CCCC1(C)C (stereo not drawn) [Alpha Isomethylionone, 3-methyl-4-(2,6,6-trimethyl-2-cyclohexen-1-yl)-3-buten-2-one] | 100 | 100 | 100 | 84 | 96 | 
8 | CCCCOC(=O)CCC(C)=O [Butyl levulinate, reference compound] |  |  |  |  |  | pest or weed control at 0.2 % [11]: 64%; pest or weed control at 0.2 % [12]: 68%; pest or weed control at 0.2 % [13]: 62%; pest or weed control at 0.2 % [14]: 60%; pest or weed control at 0.2 % [15]: 64%
9 | O=C1CCC/C=C\CCCCCCCCCC1 [Cyclohexadec-5-ene-1-one, (5Z) cyclohexadec-5-ene-1-one] |  |  |  |  |  | pest or weed control at 0.1 % (chemical at 0.1% in acetone on filter paper, 0.5 hr post-treatment, read-out: percent repellency at 0.5 hr): 94%; pest or weed control at 0.1 % (chemical at 0.1% in acetone on filter paper, 1 hr post-treatment, read-out: percent repellency at 1 hr): 94%; pest or weed control at 0.1 % (chemical at 0.1% in acetone on filter paper, 6 hr post-treatment, read-out: percent repellency at 6 hr): 100%; pest or weed control at 0.1 % (chemical at 0.1% in acetone on filter paper, 24 hr post-treatment, read-out: percent repellency at 24 hr): 100%; pest or weed control at 0.1 % (chemical at 0.1%, average of 0.5, 1, 6 and 24 hr, read-out: percent repellency, Average): 97%
10 | CCC(=O)/C(C)=C/C1C(C)CC=CC1(C)C (stereo not drawn) [Dimethylionone, (E)-2-methyl-1-(2,2,6-trimethyl-1-cyclohex-3-enyl)pent-1-en-3-one] | 90 | 96 | 96 | 92 | 93.5 | 
11 | CCCCCC1C(=O)CCC1CC(=O)OCC (stereo not drawn) [Ethyl dihydrojasmonate, ethyl 2-(3-oxo-2-pentylcyclopentyl)acetate] |  |  |  |  |  | percent repellency at 2 hour (chemical at 0.2%): 90%
12 | CC(=O)CCC=C(C)CCC=C(C)C [Geranylacetone, 6,10-dimethyl-5,9-undecadien-2-one] | 100 | 100 | 100 | 100 | 100 | 
13 | CC1=CCCC(C)(C)C1/C=C/C(=O)CC(C)C (stereo not drawn) [Isobutylionone, (E)-5-Methyl-1-(2,6,6-trimethyl-1-cyclohex-2-enyl) hex-1-en-3-one] | 100 | 98 | 94 | 94 | 96.5 | 
14 | CC1(C)C2CCC3(C2)C1C(=O)CCC3(C)C (stereo not drawn) [Isolongifolanone, 2,2,7,7-tetramethyltricyclo[6.2.1.01,6]undecan-5-one] | 90 | 88 | 98 | 98 | 93 | 
15 | CCC(C)=CCCC(C)=CCC1CCCC1=O (stereo not drawn) [Methyl Apritone, 2-(3,7-dimethyl-2,6-nonadienyl)cyclopentanone] |  |  |  |  |  | pest or weed control at 0.2 % [11]: 100%; pest or weed control at 0.2 % [12]: 100%; pest or weed control at 0.2 % [13]: 100%; pest or weed control at 0.2 % [14]: 100%; percent repellency at 2 hour (chemical at 0.2%): 90%; pest or weed control at 0.2 % [15]: 100%
16 | CCCCCCCCCCC(C)=O [Methyl decyl ketone, 2-dodecanone] | 100 | 100 | 100 | 100 | 100 | 
17 | CCCCCC1C(=O)CCC1CC(=O)OC (stereo not drawn) [Methyl dihydrojasmonate, methyl 2-(3-oxo-2-pentylcyclopentyl)acetate] |  |  |  |  |  | pest or weed control at 0.2 % [11]: 86%; pest or weed control at 0.2 % [12]: 96%; pest or weed control at 0.2 % [13]: 94%; pest or weed control at 0.2 % [14]: 92%; percent repellency at 2 hour (chemical at 0.2%): 98%; pest or weed control at 0.2 % [15]: 92%
18 | CC/C=C\CC1C(=O)CCC1CC(=O)OC (stereo not drawn) [Methyl jasmonate, (Z)-methyl 2-(3-oxo-2-(pent-2-enyl)cyclopentyl)acetate] |  |  |  |  |  | pest or weed control at 0.2 % [11]: 80%; pest or weed control at 0.2 % [12]: 90%; pest or weed control at 0.2 % [13]: 90%; pest or weed control at 0.2 % [14]: 88%; pest or weed control at 0.2 % [15]: 87%
19 | CCCCCCCCCC(C)=O [Methyl nonyl ketone, methyl nonyl ketone] |  |  |  |  |  | pest or weed control at 0.5 % [6]: 85.7%; pest or weed control at 0.5 % [7]: 84%; pest or weed control at 0.5 % [8]: 80%; pest or weed control at 0.5 % [9]: 74%; pest or weed control at 0.5 % [10]: 80.9%
20 | CCCCCCCCCCCC(C)=O [Methyl undecyl ketone, 2-tridecanone] | 100 | 100 | 100 | 100 | 100 | 
21 | CC1=CCC(C(C)CC2CCCC2=O)CC1 (stereo not drawn) [Nectaryl ™, 2-(2-(4-methyl-3-cyclohexen-1-yl)propyl) cyclopentanone] | 87.8 | 95.9 | 100 | 100 | 95.9 | 
22 | C=C(C)C1CCC2=CC(=O)CC(C)C2(C)C1 (stereo not drawn) [Nootkatone, 4,4a-dimethyl-6-prop-1-en-2-yl-3,4,5,6,7,8-hexahydronaphthalen-2-one] | 100 | 100 | 100 | 100 | 100 | percent repellency at 2 hour (chemical at 0.1%): 60%
23 | CCCCCC1C(=O)CCC1CC(=O)OCC=C(C)C (stereo not drawn) [Prenyl dihydrojasmonate, 3-methylbut-2-enyl 2-(3-oxo-2-pentylcyclopentyl)acetate] |  |  |  |  |  | percent repellency at 2 hour (chemical at 1.0%): 82%
24 | CCCCCC1C(=O)CCC1CC(=O)OCCC (stereo not drawn) [Propyl dihydrojasmonate, propyl 2-(3-oxo-2-pentylcyclopentyl)acetate] |  |  |  |  |  | percent repellency at 2 hour (chemical at 0.2%): 78%
25 | CCC(C)CCCC(C)CCC1CCCC1=O (stereo not drawn) [Tetrahydro methyl apritone, 2-(3,7-dimethynonyl)cyclopentanone] |  |  |  |  |  | percent repellency at 2 hour (chemical at 0.2%): 88%
26 | CC(C)CCCC(C)CCC1CCCC1=O (stereo not drawn) [Tetrahydroapritone] |  |  |  |  |  | percent repellency at 2 hour (chemical at 0.2%): 82%
27 | CCCCCC1CC(=O)C=C(C)C1C(=O)OCC (stereo not drawn) [ethyl 2-methyl-4-oxo-6-pentylcyclohec-2-enecarboxylate] |  |  |  |  |  | percent repellency at 2 hour (chemical at 0.2%): 62%
